Measured values published in patent US20050234026A1, “Method and agent for inducing apoptosis/cell death in leukemia cells” (priority 2003, published 2005).
Read-outs that look alike come from different tables or passages of the source.

Key:
[1] = system: CLL cells; experiment: Cytotoxicity of NOS inhibitors and NO quenchers/scavengers for freshly-isolated CLL cells in vitro; assay type: cell-based, human; settings: for ED50 for CLL: Table 2, CLL cytotoxicity; for ED50 for CLL (mean ± SEM): CLL cytotoxicity, freshly-isolated patient cells in vitro; for EC50: read-out: EC50 (average concentration of compound that induced 50% CLL cell death), CLL cell death in vitro, ± SEM
[2] = biological target: pure human enzyme NOS3 (Homo sapiens, UniProt P29474); experiment: Kd for enzyme inhibition, pure human NOS3; assay type: biochemical
[3] = system: HL-60 and U937 cells; experiment: Growth inhibition of acute nonlymphocytic leukemia cell lines by NO donors; assay type: cell-based, human
Excerpt: To more closely examine the mechanism of toxicity for myeloid leukemia cells, we did work to determine whether the rate of NO delivery affected its growth inhibition of acute nonlymphocytic leukemia cells. We also wanted to determine whether the NO inhibition of cell growth is associated induction of apoptosis. We treated HL-60 and U937 cells with three compounds that generate the same amount of NO but different rates. […] Furthermore, NO-induced growth inhibition was associated with apoptosis in a rate and concentration-dependent fashion (Reference 39).

[4] = cited from earlier work
[5] = system: freshly-isolated CLL cells; experiment: Apoptosis and death of freshly-isolated CLL cells after exogenous NO donors and drugs; assay type: cell-based, human; settings: for ID50, CLL cell apoptosis and death: acute addition
Excerpt: We next wanted to examine CLL cells. These malignant cells differ in many ways from ANLL and normal hematopoietic. In addition to their different lineage, they are unique in that they have a very low growth […], exist primary in the G0 phase of the cell cycle, and have defective apoptosis. […] NO also synergized with the ara-guanosine prodrug 2-amino-9-[…]-D-6-methoxy araguanine (also called 506U78).

[6] = normals and trials for septic shock and migraine; cited from earlier work
[7] = system: HL-60 myeloblastic leukemia cells; experiment: Growth of HL-60 myeloblastic leukemia cells under NO-delivering drugs; assay type: cell-based, human; settings: NO delivered from the drug
Excerpt: While studying NO and macrophages progressed in the late 1980s, we hypothesized that NO produced in the BM would be a modulator of normal and leukemic hematopoiesis. […] The differentiated cells were vacuolated, and had increased expression of nonspecific esterase, CD11 b, and CD14.

[8] = system: normal human BM cells; experiment: Colony formation of normal human bone marrow cells / CD34+ cells in methylcellulose; assay type: cell-based; settings: normal human BM cells in methylcellulose with erythropoietin and colony stimulating factors
Description: The effects of NO on the growth and differentiation of normal human BM cells were analyzed (Reference 85). We felt that normal hematopoietic cells, like malignant hematopoietic cells, would be affected by NO. […] In retrospect, we think that the increase in CFU-GM by NO from SNP may be due to alterations in apoptosis secondary to changes in bcl-2 or caspases. None of the noted inhibitions were related to cGMP.

[9] = biological target: recombinant purified human NOS1 (Homo sapiens, UniProt P29475); experiment: Kd for enzyme inhibition, pure human NOS1; assay type: biochemical
recombinant purified human NOS1, sequence (P29475 whole entry): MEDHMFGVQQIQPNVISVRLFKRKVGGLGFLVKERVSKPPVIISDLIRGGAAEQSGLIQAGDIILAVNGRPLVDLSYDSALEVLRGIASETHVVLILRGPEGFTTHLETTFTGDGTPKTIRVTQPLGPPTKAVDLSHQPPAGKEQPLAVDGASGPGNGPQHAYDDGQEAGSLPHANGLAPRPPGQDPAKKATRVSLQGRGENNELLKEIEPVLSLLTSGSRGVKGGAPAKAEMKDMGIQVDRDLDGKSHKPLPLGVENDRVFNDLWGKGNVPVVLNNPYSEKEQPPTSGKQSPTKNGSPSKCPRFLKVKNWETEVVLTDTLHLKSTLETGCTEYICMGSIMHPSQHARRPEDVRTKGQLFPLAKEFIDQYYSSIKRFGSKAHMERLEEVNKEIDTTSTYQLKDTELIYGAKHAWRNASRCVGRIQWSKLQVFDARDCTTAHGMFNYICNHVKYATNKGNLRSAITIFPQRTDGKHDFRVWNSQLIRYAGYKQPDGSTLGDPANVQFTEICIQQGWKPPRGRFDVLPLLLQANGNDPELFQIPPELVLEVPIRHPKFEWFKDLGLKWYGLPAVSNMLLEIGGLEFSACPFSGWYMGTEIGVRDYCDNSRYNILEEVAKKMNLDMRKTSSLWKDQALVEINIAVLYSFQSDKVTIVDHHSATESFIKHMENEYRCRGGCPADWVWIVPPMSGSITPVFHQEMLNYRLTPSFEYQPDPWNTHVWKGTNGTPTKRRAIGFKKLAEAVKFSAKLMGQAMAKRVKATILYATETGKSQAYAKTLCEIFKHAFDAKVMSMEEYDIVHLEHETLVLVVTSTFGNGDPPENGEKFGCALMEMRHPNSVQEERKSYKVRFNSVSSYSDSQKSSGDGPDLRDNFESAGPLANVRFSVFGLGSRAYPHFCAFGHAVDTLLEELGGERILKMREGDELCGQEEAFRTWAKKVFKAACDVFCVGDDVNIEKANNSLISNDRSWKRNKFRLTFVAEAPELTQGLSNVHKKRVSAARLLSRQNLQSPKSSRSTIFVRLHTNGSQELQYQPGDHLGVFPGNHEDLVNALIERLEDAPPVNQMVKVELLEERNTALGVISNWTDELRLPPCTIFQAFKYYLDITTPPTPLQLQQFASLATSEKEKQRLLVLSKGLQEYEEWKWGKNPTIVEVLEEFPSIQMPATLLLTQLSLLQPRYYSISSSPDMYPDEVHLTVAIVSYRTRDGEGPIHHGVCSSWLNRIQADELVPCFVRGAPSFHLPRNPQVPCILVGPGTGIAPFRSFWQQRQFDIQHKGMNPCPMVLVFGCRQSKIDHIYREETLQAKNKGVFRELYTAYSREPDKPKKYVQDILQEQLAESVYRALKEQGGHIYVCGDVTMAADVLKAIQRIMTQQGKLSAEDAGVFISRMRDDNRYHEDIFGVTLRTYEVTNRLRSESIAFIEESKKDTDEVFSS

pure human enzyme NOS3, sequence (P29474 whole entry): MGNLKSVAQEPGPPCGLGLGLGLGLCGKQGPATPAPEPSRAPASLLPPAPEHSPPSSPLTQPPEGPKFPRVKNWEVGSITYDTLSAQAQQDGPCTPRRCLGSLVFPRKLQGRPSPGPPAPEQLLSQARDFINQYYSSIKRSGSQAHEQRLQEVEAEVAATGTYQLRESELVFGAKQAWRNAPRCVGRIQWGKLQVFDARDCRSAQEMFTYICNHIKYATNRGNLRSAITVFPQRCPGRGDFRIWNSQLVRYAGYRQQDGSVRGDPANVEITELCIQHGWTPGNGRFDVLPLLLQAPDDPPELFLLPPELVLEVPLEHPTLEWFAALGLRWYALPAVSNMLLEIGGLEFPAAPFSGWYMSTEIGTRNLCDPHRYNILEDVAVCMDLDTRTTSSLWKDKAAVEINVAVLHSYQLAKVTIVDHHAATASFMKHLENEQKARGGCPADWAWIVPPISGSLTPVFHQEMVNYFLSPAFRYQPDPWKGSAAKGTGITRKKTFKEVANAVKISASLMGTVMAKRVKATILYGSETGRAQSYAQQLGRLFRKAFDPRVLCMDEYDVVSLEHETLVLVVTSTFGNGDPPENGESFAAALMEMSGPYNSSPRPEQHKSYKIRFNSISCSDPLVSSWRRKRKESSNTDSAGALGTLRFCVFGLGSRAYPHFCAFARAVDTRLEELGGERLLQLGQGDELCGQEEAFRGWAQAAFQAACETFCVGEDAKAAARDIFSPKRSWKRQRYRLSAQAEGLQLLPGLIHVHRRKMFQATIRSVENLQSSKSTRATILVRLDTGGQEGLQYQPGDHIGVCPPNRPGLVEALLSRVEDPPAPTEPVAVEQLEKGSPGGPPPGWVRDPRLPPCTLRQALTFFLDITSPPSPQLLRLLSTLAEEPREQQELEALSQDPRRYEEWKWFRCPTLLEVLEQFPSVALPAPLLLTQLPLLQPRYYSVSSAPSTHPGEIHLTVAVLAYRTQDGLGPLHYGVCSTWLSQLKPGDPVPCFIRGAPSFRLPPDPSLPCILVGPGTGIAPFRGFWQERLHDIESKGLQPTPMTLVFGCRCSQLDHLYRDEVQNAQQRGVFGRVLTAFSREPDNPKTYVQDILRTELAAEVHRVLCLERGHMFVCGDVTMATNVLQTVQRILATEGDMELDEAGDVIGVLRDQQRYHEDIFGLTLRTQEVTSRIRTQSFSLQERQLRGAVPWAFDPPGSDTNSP

Cc1ccnc(N)c1 [2-amino-4-methyl pyridine]
ED50 for CLL [1]: >2000 µM

O=[N+]([O-])c1cccc2cn[nH]c12 [7-NI, 7-Nitroindazole]
ED50 for CLL (mean ± SEM) [1]: 131 ± 23 µM
EC50 ([1]; Homo sapiens): 131 ± 23 µM

Cl.Cl.N=C(Nc1ccc(CCNCc2cccc(Cl)c2)cc1)c1cccs1 [ARL-17477, N-[4-(2-{[(3-chlorophenyl)methyl]amino}ethyl)phenyl]-2-thiophenecarboximide dihydrochloride]
Kd [2]: 1 µM
ED50 for CLL (mean ± SEM) [1]: 11 ± 2 µM
ED50 for CLL [1]: 11 µM
EC50 [1]: 11 ± 2 µM

CC1(C)N([O])C(c2ccc(C(=O)O)cc2)=[N+]([O-])C1(C)C [Carboxy-PTIO, 2-(4-Carboxyphenyl)-4,4,5,5-tetramethylimidazoline-1-oxyl-3-oxide]
ED50 for CLL (mean ± SEM) [1]: 227 ± 31 µM
EC50 [1]: 227 ± 31 µM

NCCN(CCN)/[N+]([O-])=N/O [DETA-NO]
Inhibition of leukemia cell and colony growth (rank) [3]: most potent inhibitor
half-life of NO delivery [4]: 1200 min
Interaction with fludarabine in killing CLL cells ([5]; combination with fludarabine): acted synergistically
ID50, CLL cell apoptosis and death ([5]; freshly-isolated CLL cells): 188 µM
Interaction with other agents in killing CLL cells ([5]; with 5-fluorouracil, gemcitabine, doxorubicin, chlorambucil or SN-38): did not enhance the activity

NCCNCCN [DETA]
Effect on CLL cells (control for NO dependence) ([5]; freshly-isolated CLL cells): had no effects

C/C1=C2/[N-][C@H]([C@H](CC(N)=O)[C@@]2(C)CCC(=O)NC[C@@H](C)OP(=O)([O-])O[C@H]2[C@@H](O)[C@@H](n3cnc4cc(C)c(C)cc43)O[C@@H]2CO)[C@]2(C)N=C(/C(C)=C3N=C(/C=C4N=C1[C@@H](CCC(N)=O)C\4(C)C)[C@@H](CCC(N)=O)[C@]\3(C)CC(N)=O)[C@@H](CCC(N)=O)[C@]2(C)CC(N)=O.[Co+3].[OH-] [Hydroxocobalamin]
ED50 for CLL (mean ± SEM) [1]: 148 ± 46 µM
EC50 [1]: 148 ± 46 µM

CNC(=N)NCCC[C@H](N)C(=O)O [L-N^G-monomethylarginine]
Effects on cardiovascular, liver, or hematopoietic function [6]: no major effects
ED50 for CLL [1]: >2000 µM

NC(=N[N+](=O)[O-])NCCCC(N)C(=O)O [L-N^G-nitroarginine]
ED50 for CLL [1]: >2000 µM

CNCCCCCCN(C)/[N+]([O-])=N/O [MAMA-NO]
half-life of NO delivery [4]: 2 min
ID50, CLL cell apoptosis and death ([5]; freshly-isolated CLL cells): 1658 µM

CCCN(CCCN)/[N+]([O-])=N/O [PAPA-NO]
half-life of NO delivery [4]: 30 min
ID50, CLL cell apoptosis and death ([5]; freshly-isolated CLL cells): 850 µM

[NH-]c1c[n+](N2CCOCC2)no1 [SIN-1]
Growth of HL-60 cells [7]: potently inhibited
Development of marrow colonies [8]: inhibited

FC(F)(F)c1ccccc1-n1ccnc1 [TRIM, 1-(2-Trifluoromethylphenyl)imidazole]
ED50 for CLL (mean ± SEM) [1]: 445 ± 46 µM
EC50 ([1]; Homo sapiens): 445 ± 46 µM

C=CCC(=N)NCCC[C@H](N)C(=O)O [Vinyl-L-NIO, N^5-(1-imino-3-butenyl)-L-ornithine]
ED50 for CLL (mean ± SEM) [1]: 747 ± 126 µM
EC50 ([1]; Homo sapiens): 747 ± 126 µM
ED50 for CLL [1]: 747 µM
Kd [9]: 0.1 µM

Nc1nc(F)nc2c1ncn2[C@@H]1O[C@H](CO)[C@@H](O)[C@@H]1O [fludarabine]
ID50, CLL cell apoptosis and death ([5]; freshly-isolated CLL cells): 2 µM

S-nitrosoacetylpenicillamine [SNAP]
Growth of HL-60 cells [7]: potently inhibited
Development of marrow colonies [8]: inhibited
